Measured values as given in article PMC10700596 (Nature Communications, 2023).
Values joined by “and” are separate entries in the source; they are usually repeats but may differ in a detail not shown here. Equal entries are not always repeated. Where two headings read alike, the source gives them in different places.

Legend:
wild-type EP4R = wild-type EP4R (Homo sapiens, UniProt P35408); experiment: cell-based
EP4R [1] = target: T1, EP4R (Homo sapiens, UniProt P35408); experiment: biochemical; format: binding; conditions: for inhibition at 10 µM: 10 µM compound vs 10 nM 3H-PGE2, read-out: % displacement of 3HPGE2 at 10 µM
T1 construct: Tango fusion cassette (only 'tango' is printed); expressed in transfected cells; host or cells: HTLA cells (tTA-dependent luciferase reporter, β-arrestin2-TEV fusion)

EP4R [2] = target: T1, EP4R; experiment: PRESTO-Tango β-arrestin2 recruitment assay; format: cell-based; conditions: for antagonist activity at EP4R: concentration-response
EP4R [3] = target: T1, EP4R; experiment: cell-based
[4] = target: T2, Thromboxane A2 (TP) receptor (Homo sapiens, UniProt P21731); experiment: Functional cAMP production assay, TP receptor; format: cell-based; conditions: agonist alone, replicate columns
T2 sequence (P21731 1-343): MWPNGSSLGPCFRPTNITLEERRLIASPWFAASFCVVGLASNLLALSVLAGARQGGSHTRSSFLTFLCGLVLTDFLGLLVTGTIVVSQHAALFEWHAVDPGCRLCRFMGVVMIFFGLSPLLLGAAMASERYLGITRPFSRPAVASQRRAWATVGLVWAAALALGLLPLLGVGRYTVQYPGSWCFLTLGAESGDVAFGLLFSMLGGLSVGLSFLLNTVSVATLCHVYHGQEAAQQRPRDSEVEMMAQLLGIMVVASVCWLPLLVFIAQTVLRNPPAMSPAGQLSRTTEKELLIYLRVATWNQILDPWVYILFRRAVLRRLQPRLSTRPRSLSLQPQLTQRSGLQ

[5] = target: T3, prostaglandin D2 (PGD2) receptor (Homo sapiens, UniProt Q9Y5Y4); experiment: Functional cAMP production assay, PGD2 receptor; format: cell-based; conditions: replicate values
T3 sequence (Q9Y5Y4 1-395): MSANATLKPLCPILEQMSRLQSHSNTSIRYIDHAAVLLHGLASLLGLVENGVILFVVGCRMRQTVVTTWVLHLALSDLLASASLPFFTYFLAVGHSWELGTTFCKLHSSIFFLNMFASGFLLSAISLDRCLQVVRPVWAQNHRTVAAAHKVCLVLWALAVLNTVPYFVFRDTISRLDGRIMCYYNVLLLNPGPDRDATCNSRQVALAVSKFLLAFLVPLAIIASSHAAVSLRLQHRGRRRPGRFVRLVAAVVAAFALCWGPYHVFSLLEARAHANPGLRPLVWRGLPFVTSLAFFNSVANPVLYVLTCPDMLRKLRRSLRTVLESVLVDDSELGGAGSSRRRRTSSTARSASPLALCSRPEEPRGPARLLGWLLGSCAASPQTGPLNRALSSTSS

EP4R R316A mutant = target: T4, EP4R R316A mutant (Homo sapiens, UniProt P35408, R316A); experiment: BRET EP4R-arrestin interaction reporter assay, R316A mutant; format: cell-based; conditions: agonist mode
T4 construct: expressed in transfected cells; host or cells: HEK cells, transient
Excerpt: three independent experiments. Source data are provided as a Source Data file.
(1 picture or pasted object on this page, not shown here)

[6] = calculated using the Cheng Prusoff equation, read-out: Arrestin-BRET Ki*
[7] = calculated using the Cheng Prusoff equation, read-out: PRESTO-Tango Ki*
[8] = PRESTO-Tango -logIC50, antagonist mode, EC80 of PGE2
[9] = PRESTO-Tango IC50 (nM), antagonist mode, EC80 of PGE2

T1 sequence (P35408 whole entry, the tested form may be a part): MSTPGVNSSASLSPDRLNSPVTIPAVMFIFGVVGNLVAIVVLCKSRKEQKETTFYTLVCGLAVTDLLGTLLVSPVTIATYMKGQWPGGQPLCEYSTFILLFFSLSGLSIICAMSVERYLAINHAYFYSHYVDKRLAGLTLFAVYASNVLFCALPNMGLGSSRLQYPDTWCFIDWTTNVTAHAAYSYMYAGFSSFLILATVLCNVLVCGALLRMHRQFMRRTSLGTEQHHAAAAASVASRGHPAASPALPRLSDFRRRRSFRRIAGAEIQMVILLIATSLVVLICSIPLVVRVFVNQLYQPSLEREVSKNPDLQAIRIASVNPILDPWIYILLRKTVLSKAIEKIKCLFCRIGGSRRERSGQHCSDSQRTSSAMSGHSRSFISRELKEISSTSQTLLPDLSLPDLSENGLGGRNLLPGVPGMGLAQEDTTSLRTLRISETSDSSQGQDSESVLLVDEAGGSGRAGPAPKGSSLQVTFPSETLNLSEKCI
wild-type EP4R, sequence (P35408 whole entry): as the sequence (P35408 whole entry, the tested form may be a part) above
T4 sequence (P35408 whole entry R316A): as the sequence (P35408 whole entry, the tested form may be a part) above, with R316A counted along it

SMILES: O=C(NC1CCCC(C(=O)O)CC1)c1csc(C2CCCCC2)c1 (centres unmarked) [Compound 66, OC(=O)C1CCCC(CC1)NC(=O)C2=CSC(=C2)C3CCCCC3]
- IC50 (wild-type EP4R): 4.05 µM
- Ki (wild-type EP4R; [6]): 0.81 µM
- inhibition at 10 µM (EP4R [1]): 25.6%
- IC50 (EP4R [2]; PRESTO-Tango -logIC50): 3720 nM
- IC50 (EP4R [2]; PRESTO-Tango IC50 (nM)): 3760 nM
- Ki (EP4R [2]; [7]): 752 nM
- antagonist activity at EP4R (EP4R [2]): dose-dependent antagonist activity

SMILES: O=C(O)C1CCC2(CC1)CC(Nc1ncnc3sc4c(c13)CCCC4)C2 (centres unmarked) [Compound 71, OC(=O)C1CCC2(CC(C2)NC=3N=CN=C4SC=5CCCCC5C34)CC1]
- IC50 (wild-type EP4R): 0.899 µM
- ligand efficiency (wild-type EP4R): 0.35 kcal/mol per “heavy” atom
- Ki (wild-type EP4R; [6]): 0.18 µM
- inhibition at 10 µM (EP4R [1]): 62.9%
- IC50 (EP4R [2]; PRESTO-Tango IC50 (nM)): 850 nM
- Ki (EP4R [2]; [7]): 170 nM
- antagonist activity at EP4R (EP4R [2]): dose-dependent antagonist activity

SMILES: O=C(O)C1CCC2(CC1)CC(Nc1ncnc3sc4ccccc4c13)C2 (centres unmarked) [Compound 72, OC(=O)C1CCC2(CC(C2)NC=3N=CN=C4SC=5C=CC=CC5C34)CC1]
- IC50 (wild-type EP4R): 0.514 µM
- Ki (wild-type EP4R; [6]): 0.103 µM
- IC50 (EP4R [2]; PRESTO-Tango IC50 (nM)): 444 nM
- Ki (EP4R [2]; [7]): 89 nM

SMILES: O=C(O)C1CCC2(CC1)CC(Nc1ncnc3[nH]c4ccccc4c13)C2 (centres unmarked) [Compound 73, OC(=O)C1CCC2(CC(C2)NC=3N=CN=C4NC=5C=CC=CC5C34)CC1]
- IC50 (wild-type EP4R): 0.146 µM
- ligand efficiency (wild-type EP4R): 0.40 kcal/mol per “heavy” atom
- Ki (wild-type EP4R; [6]): 0.029 µM
- IC50 (EP4R [2]; PRESTO-Tango IC50 (nM)): 548 nM
- Ki (EP4R [2]; [7]): 110 nM

SMILES: Cn1c2ccccc2c2c(NC3CC4(CCC(C(=O)O)CC4)C3)ncnc21 (centres unmarked) [Compound 75, CN1C=2C=CC=CC2C=3C(NC4CC5(C4)CCC(CC5)C(=O)O)=NC=NC13]
- IC50 (wild-type EP4R): 0.813 µM
- Ki (wild-type EP4R): 0.163 µM
- reduced potency of analog (wild-type EP4R): up to 10 fold
- IC50 (EP4R [2]; PRESTO-Tango IC50 (nM)): 607 nM
- Ki (EP4R [2]; PRESTO-Tango Ki* (nM)): 121 nM

SMILES: O=C(N[C@@H]1CC[C@@H](C(=O)O)CCC1(F)F)c1c[nH]c(-c2ccccc2)c1 [Compound 80, OC(=O)[C@@H]1CC[C@@H](NC(=O)C2=CNC(=C2)C=3C=CC=CC3)C(F)(F)CC1]
- Ki (EP4R [1]): 1.38 µM
- IC50 (EP4R [2]; [8]): 18600 nM
- IC50 (EP4R [2]; [9]): > 10000 nM

SMILES: Cc1cc(C(=O)NC2CCCC(C(=O)O)CC2)c(C)n1-c1ccc2c(c1)OCCO2 (centres unmarked) [Compound 81, CC1=CC(C(=O)NC2CCCC(CC2)C(=O)O)=C(C)N1C=3C=CC=4OCCOC4C3]
- Ki (EP4R [1]): 1.17 µM
- IC50 (EP4R [2]; [8]): 35500 nM
- IC50 (EP4R [2]; [9]): > 10000 nM

SMILES: Cc1cc(C(=O)N[C@H]2CC[C@H](C(=O)O)CCC2(F)F)c(C)n1-c1ccccc1 [Compound 83, CC1=CC(C(=O)N[C@H]2CC[C@@H](CCC2(F)F)C(=O)O)=C(C)N1C=3C=CC=CC3]
- IC50 (wild-type EP4R): 3.39 µM
- Ki (wild-type EP4R): 0.678 µM
- Ki (EP4R [1]): > 10 µM
- Kb (EP4R [3]): > 10 µM
- PRESTO-Tango -logIC50 (EP4R [2]): unstable
- IC50 (EP4R [2]; PRESTO-Tango IC50 (nM)): > 10000 nM

SMILES: O=C(O)C1CCC2(CC1)CC(Nc1ncnc3[nH]c4cc(F)ccc4c13)C2 (centres unmarked) [Compound 134, OC(=O)C1CCC2(CC(C2)NC=3N=CN=C4NC=5C=C(F)C=CC5C34)CC1]
- IC50 (wild-type EP4R): 0.155 µM
- Ki (wild-type EP4R): 0.031 µM
- IC50 (EP4R [2]; PRESTO-Tango IC50 (nM)): 203 nM
- Ki (EP4R [2]; PRESTO-Tango Ki* (nM)): 41 nM

SMILES: O=C(O)C1CCC2(CC1)CC(Nc1ncnc3[nH]c4ccc(Br)cc4c13)C2 (centres unmarked) [Compound 135, OC(=O)C1CCC2(CC(C2)NC=3N=CN=C4NC=5C=CC(Br)=CC5C34)CC1]
- IC50 (wild-type EP4R): 0.136 µM
- Ki (wild-type EP4R): 0.0272 µM
- IC50 (EP4R [2]; PRESTO-Tango IC50 (nM)): 91.5 nM
- Ki (EP4R [2]; PRESTO-Tango Ki* (nM)): 18.3 nM

SMILES: CCCCC[C@H](O)/C=C/[C@@H]1[C@@H](C/C=C\CCCC(=O)O)[C@H]2CO[C@@H]1C2 [Compound U46619]
- Thromboxane Receptor response, U46619 alone ([4]; Log[Drug] -4.52): 101.694 and 84.622 and 99.9733
- Thromboxane Receptor response, U46619 alone ([4]; Log[Drug] -5): 98.3839 and 68.3538 and 108.147 and 95.8866 and 103.858 and 102.233 and 110.843 and 96.4513 and 100.005 and 98.4577 and 94.7206 and 109.077
- Thromboxane Receptor response, U46619 alone ([4]; Log[Drug] -5.52): 90.8596 and 73.8682 and 91.1581 and 74.0123 and 88.5137 and 87.193 and 76.6016 and 83.785 and 87.9816 and 86.9707 and 87.4905
- Thromboxane Receptor response, U46619 alone ([4]; Log[Drug] -6): 73.0479 and 61.333 and 83.5479 and 72.2309 and 75.4547 and 85.5682 and 93.0317 and 74.9476 and 75.1314 and 67.4734 and 82.2643
- Thromboxane Receptor response, U46619 alone ([4]; Log[Drug] -6.52): 53.1945 and 46.9117 and 56.4473 and 51.2866 and 54.1589 and 49.4671 and 53.794 and 49.5996 and 46.1382 and 46.7815 and 52.9845 and 63.6908
- Thromboxane Receptor response, U46619 alone ([4]; Log[Drug] -7): 26.7811 (2×) and 28.7836 and 26.1246 and 27.7368 and 28.2234 and 28.3716 and 27.3608 and 24.4507 and 37.3892
- Thromboxane Receptor response, U46619 alone ([4]; Log[Drug] -7.52): 6.98 and 11.6509 and 14.4408 and 11.9391 and 9.265 and 14.6944 and 12.5961 and 11.3627
- Thromboxane Receptor response, U46619 alone ([4]; Log[Drug] -8): 3.852 and 4.407 and 5.259 and 6.346 and 4.095 and 3.487 and 3.973 and 12.9637 and 7.1283 and 8.507 and 7.772 and 8.062
- Thromboxane Receptor response, U46619 alone ([4]; Log[Drug] -8.52): 0.6979 and 0.4256 and 1.264 and 1.489 and 0.4372 and 0.7674 and -0.6982 and -0.1162 and -0.5757 and -0.4127
- Thromboxane Receptor response, U46619 alone ([4]; Log[Drug] -9): 1.749 and 1.539 and -0.4127 and -0.8139 and 0.03755 and 0.2374 and 1.155 and 2.074 and -0.008962 and 0.4505 and -0.2293

SMILES: CC(C(=O)Nc1cc(C#N)ccc1CCCC(=O)O)c1ccc(F)c2ccccc12 (centres unmarked) [ONO-AE3-208, reference compound]
- Ki (wild-type EP4R; [6]): 0.0013 µM

SMILES: CCCCC[C@H](O)/C=C/[C@H]1C(=O)C[C@H](O)[C@@H]1C/C=C\CCCC(=O)O [PGD2]
- Prostaglandin D2 receptor response, drug alone ([5]; Log[Drug] -7): 0.6033 and 0.644 and 0.6961 and 0.6919
- Prostaglandin D2 receptor response, drug alone ([5]; Log[Drug] -7.52): 0.797 and 0.93 and 0.9088 and 0.9243 and 0.8431 and 0.8125 and 0.8754 and 0.8197 and 0.9698 and 0.7088 and 0.7525 and 0.7962
- Prostaglandin D2 receptor response, drug alone ([5]; Log[Drug] -8): 0.9354 and 1 and 1.006 and 1.122 and 0.9207 and 0.9404 and 0.8901 and 0.9489 and 0.8787 and 1.018 and 0.7261 and 1.1394
- Prostaglandin D2 receptor response, drug alone ([5]; Log[Drug] -8.52): 0.9328 and 0.9897 and 1.022 and 0.9062 and 0.7756 and 1.181 and 0.8387 and 1.0826 and 1.099 and 1.025 and 0.9559 and 0.8192
- Prostaglandin D2 receptor response, drug alone ([5]; Log[Drug] -9): 1.112 and 0.9671 and 1.1328 and 0.9787 and 1.031 and 1.15 and 0.9594 and 0.9527 and 0.952 and 0.9619 and 1.007 and 0.8917
- Prostaglandin D2 receptor response, drug alone ([5]; Log[Drug] -9.52): 0.8441 and 1.142 and 1.077 and 0.9738 and 0.9345 and 0.9535 and 0.9143 and 1.094 and 0.8709 and 1.005 and 0.9652 and 0.9465
- Prostaglandin D2 receptor response, drug alone ([5]; Log[Drug] -10): 1.003 (2×) and 1.01 (2×) and 1.029 and 0.9872 and 0.9954 and 1.0644 and 0.8654 and 0.9098 and 1.022 and 1.061
- Prostaglandin D2 receptor response, drug alone ([5]; Log[Drug] -10.52): 0.9812 and 1.108 and 1.015 and 0.9787 and 0.8969 and 1.051 and 1.01 and 0.8703 and 1.02 and 1.075 and 0.9632 and 0.9209
- Prostaglandin D2 receptor response, drug alone ([5]; Log[Drug] -11): 0.9785 and 0.8795 and 0.9671 and 1.005 and 0.997 and 1.114 and 0.9736 and 1.021 and 1.027 and 1.076 and 1.172 and 1.01

SMILES: CCCCC[C@H](O)/C=C/[C@H]1[C@H](O)CC(=O)[C@@H]1C/C=C\CCCC(=O)O [PGE2, prostaglandin E2, reference compound]
- EC80 of PGE2 (wild-type EP4R): 0.008 µM
- activation of R316A mutant receptor (EP4R R316A mutant): no longer
- EC80 of PGE2 (EP4R [2]; agonist): 0.008 µM
